Laboratory results: patent US20230407243A1, “GENETIC PLATFORM TO INVESTIGATE THE FUNCTIONS OF BACTERIAL DRUG EFFLUX PUMPS” (priority 2022, published 2023)

Tests used:
Test in all cases: MIC susceptibility profiling, efflux platform
Assay type in all cases: cell-based, Escherichia coli
EKO-35 araC::emrAB = conditions: for Fold change of MICs: EKO-35 araC::emrAB compared to EKO-35; for Minimum Inhibitory Concentration, EKO-35 araC::emrAB: Table 13B, non-porinated, technical duplicate
Procedure, shortened: (§1)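 Turbidity (OD600, pre-incubation subtracted) defined growth after 18 h at 37 °C in MHB II. The inoculum was diluted 1/2000 from an OD600 ~1.0 PBS suspension of an overnight LB culture. Compounds were run as duplicate twofold dilutions.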

EKO-35 araC::emrKY = conditions: for Fold change of MICs: EKO-35 araC::emrKY compared to EKO-35; for Minimum Inhibitory Concentration, EKO-35 araC::emrKY: Table 13B, non-porinated, technical duplicate
Procedure, shortened: as §1

EKO-35 araC::acrBD408A = conditions: for Fold change of MICs: EKO-35 araC::acrBD408A compared to EKO-35; for Minimum Inhibitory Concentration, EKO-35 araC::acrBD408A: Table 13B, non-porinated, technical duplicate
Procedure, shortened: as §1

[1] = system: EKO-35 araC::mexCD (MexCD from P. aeruginosa); conditions: for Fold change of MICs: EKO-35 araC::mexCD compared to EKO-35; for Minimum Inhibitory Concentration, EKO-35 araC::mexCD: Table 13B, non-porinated, technical duplicate
Procedure, shortened: as §1

EKO-35 araC::acrB = conditions: for Fold change of MICs: EKO-35 araC::acrB compared to EKO-35; for Minimum Inhibitory Concentration, EKO-35 araC::acrB: Table 13A, non-porinated, technical duplicate
Procedure, shortened: as §1

EKO-35 araC::acrEF = conditions: for Fold change of MICs: EKO-35 araC::acrEF compared to EKO-35; for Minimum Inhibitory Concentration, EKO-35 araC::acrEF: Table 13A, non-porinated, technical duplicate
Procedure, shortened: as §1

EKO-35 araC::macAB = conditions: for Fold change of MICs: EKO-35 araC::macAB compared to EKO-35; for Minimum Inhibitory Concentration, EKO-35 araC::macAB: Table 13B, non-porinated, technical duplicate
Procedure, shortened: as §1

EKO-35 araC::acrD = conditions: for Fold change of MICs: EKO-35 araC::acrD compared to EKO-35; for Minimum Inhibitory Concentration, EKO-35 araC::acrD: Table 13A, non-porinated, technical duplicate
Procedure, shortened: as §1

N#Cc1ccc(-c2c(NC(=O)C(Cl)Cl)oc(-c3cccs3)c2C#N)cc1 [compound 2]
1 fold: Fold change of MICs (EKO-35 araC::emrAB) | Fold change of MICs (EKO-35 araC::emrKY) | Fold change of MICs (EKO-35 araC::acrBD408A) | Fold change of MICs [1] | Fold change of MICs (EKO-35 araC::acrB) | Fold change of MICs (EKO-35 araC::acrEF) | Fold change of MICs (EKO-35 araC::macAB) | Fold change of MICs (EKO-35 araC::acrD)
320 µg/mL: Minimum Inhibitory Concentration, EKO-35 araC::emrAB (EKO-35 araC::emrAB) | Minimum Inhibitory Concentration, EKO-35 araC::emrKY (EKO-35 araC::emrKY) | Minimum Inhibitory Concentration, EKO-35 araC::acrBD408A (EKO-35 araC::acrBD408A) | Minimum Inhibitory Concentration, EKO-35 araC::mexCD [1] | Minimum Inhibitory Concentration, EKO-35 araC::acrB (EKO-35 araC::acrB) | Minimum Inhibitory Concentration, EKO-35 araC::acrEF (EKO-35 araC::acrEF) | Minimum Inhibitory Concentration, EKO-35 araC::macAB (EKO-35 araC::macAB) | Minimum Inhibitory Concentration, EKO-35 araC::acrD (EKO-35 araC::acrD)

N#CC(=NNc1cccc(C(F)(F)F)c1)C(=O)c1ccsc1 [compound 3]
320 µg/mL: Minimum Inhibitory Concentration, EKO-35 araC::emrAB (EKO-35 araC::emrAB) | Minimum Inhibitory Concentration, EKO-35 araC::emrKY (EKO-35 araC::emrKY) | Minimum Inhibitory Concentration, EKO-35 araC::acrBD408A (EKO-35 araC::acrBD408A) | Minimum Inhibitory Concentration, EKO-35 araC::mexCD [1] | Minimum Inhibitory Concentration, EKO-35 araC::acrB (EKO-35 araC::acrB) | Minimum Inhibitory Concentration, EKO-35 araC::acrEF (EKO-35 araC::acrEF) | Minimum Inhibitory Concentration, EKO-35 araC::macAB (EKO-35 araC::macAB) | Minimum Inhibitory Concentration, EKO-35 araC::acrD (EKO-35 araC::acrD)
1 fold: Fold change of MICs (EKO-35 araC::emrAB) | Fold change of MICs (EKO-35 araC::emrKY) | Fold change of MICs (EKO-35 araC::acrBD408A) | Fold change of MICs [1] | Fold change of MICs (EKO-35 araC::acrB) | Fold change of MICs (EKO-35 araC::acrEF) | Fold change of MICs (EKO-35 araC::macAB) | Fold change of MICs (EKO-35 araC::acrD)

CC(C)(C)c1cc(C(=O)NNC(=O)Nc2cccc3ccccc23)n(Cc2ccc(F)cc2)n1 [compound 4]
320 µg/mL: Minimum Inhibitory Concentration, EKO-35 araC::emrAB (EKO-35 araC::emrAB) | Minimum Inhibitory Concentration, EKO-35 araC::mexCD [1] | Minimum Inhibitory Concentration, EKO-35 araC::acrB (EKO-35 araC::acrB) | Minimum Inhibitory Concentration, EKO-35 araC::acrEF (EKO-35 araC::acrEF) | Minimum Inhibitory Concentration, EKO-35 araC::acrD (EKO-35 araC::acrD)
20 µg/mL: Minimum Inhibitory Concentration, EKO-35 araC::emrKY (EKO-35 araC::emrKY) | Minimum Inhibitory Concentration, EKO-35 araC::acrBD408A (EKO-35 araC::acrBD408A) | Minimum Inhibitory Concentration, EKO-35 araC::macAB (EKO-35 araC::macAB)
1 fold: Fold change of MICs (EKO-35 araC::emrKY) | Fold change of MICs (EKO-35 araC::acrBD408A) | Fold change of MICs (EKO-35 araC::macAB)
16 fold: Fold change of MICs (EKO-35 araC::emrAB) | Fold change of MICs [1] | Fold change of MICs (EKO-35 araC::acrB) | Fold change of MICs (EKO-35 araC::acrEF) | Fold change of MICs (EKO-35 araC::acrD)

O=c1oc(-c2ccccc2Cl)nn1-c1ccc(C(F)(F)F)cn1 [compound 5]
40 µg/mL: Minimum Inhibitory Concentration, EKO-35 araC::acrD (EKO-35 araC::acrD)
16 fold: Fold change of MICs (EKO-35 araC::emrAB) | Fold change of MICs [1] | Fold change of MICs (EKO-35 araC::acrB) | Fold change of MICs (EKO-35 araC::acrEF)
20 µg/mL: Minimum Inhibitory Concentration, EKO-35 araC::emrKY (EKO-35 araC::emrKY) | Minimum Inhibitory Concentration, EKO-35 araC::acrBD408A (EKO-35 araC::acrBD408A) | Minimum Inhibitory Concentration, EKO-35 araC::macAB (EKO-35 araC::macAB)
2 fold: Fold change of MICs (EKO-35 araC::acrD)
1 fold: Fold change of MICs (EKO-35 araC::emrKY) | Fold change of MICs (EKO-35 araC::acrBD408A) | Fold change of MICs (EKO-35 araC::macAB)
320 µg/mL: Minimum Inhibitory Concentration, EKO-35 araC::emrAB (EKO-35 araC::emrAB) | Minimum Inhibitory Concentration, EKO-35 araC::mexCD [1] | Minimum Inhibitory Concentration, EKO-35 araC::acrB (EKO-35 araC::acrB) | Minimum Inhibitory Concentration, EKO-35 araC::acrEF (EKO-35 araC::acrEF)

O=C(Nc1ccccc1)Nc1ccc(Br)c(C(F)(F)F)c1 [compound 6]
1 fold: Fold change of MICs (EKO-35 araC::emrAB) | Fold change of MICs (EKO-35 araC::emrKY) | Fold change of MICs (EKO-35 araC::acrBD408A) | Fold change of MICs [1] | Fold change of MICs (EKO-35 araC::acrB) | Fold change of MICs (EKO-35 araC::acrEF) | Fold change of MICs (EKO-35 araC::macAB) | Fold change of MICs (EKO-35 araC::acrD)
320 µg/mL: Minimum Inhibitory Concentration, EKO-35 araC::emrAB (EKO-35 araC::emrAB) | Minimum Inhibitory Concentration, EKO-35 araC::emrKY (EKO-35 araC::emrKY) | Minimum Inhibitory Concentration, EKO-35 araC::acrBD408A (EKO-35 araC::acrBD408A) | Minimum Inhibitory Concentration, EKO-35 araC::mexCD [1] | Minimum Inhibitory Concentration, EKO-35 araC::acrB (EKO-35 araC::acrB) | Minimum Inhibitory Concentration, EKO-35 araC::acrEF (EKO-35 araC::acrEF) | Minimum Inhibitory Concentration, EKO-35 araC::macAB (EKO-35 araC::macAB) | Minimum Inhibitory Concentration, EKO-35 araC::acrD (EKO-35 araC::acrD)

O=C(Nc1ccc(C(F)(F)F)cc1)Nc1ccc(C(F)(F)F)cc1 [compound 7]
1 fold: Fold change of MICs (EKO-35 araC::emrAB) | Fold change of MICs (EKO-35 araC::emrKY) | Fold change of MICs (EKO-35 araC::acrBD408A) | Fold change of MICs [1] | Fold change of MICs (EKO-35 araC::acrB) | Fold change of MICs (EKO-35 araC::acrEF) | Fold change of MICs (EKO-35 araC::macAB) | Fold change of MICs (EKO-35 araC::acrD)
320 µg/mL: Minimum Inhibitory Concentration, EKO-35 araC::emrAB (EKO-35 araC::emrAB) | Minimum Inhibitory Concentration, EKO-35 araC::emrKY (EKO-35 araC::emrKY) | Minimum Inhibitory Concentration, EKO-35 araC::acrBD408A (EKO-35 araC::acrBD408A) | Minimum Inhibitory Concentration, EKO-35 araC::mexCD [1] | Minimum Inhibitory Concentration, EKO-35 araC::acrB (EKO-35 araC::acrB) | Minimum Inhibitory Concentration, EKO-35 araC::acrEF (EKO-35 araC::acrEF) | Minimum Inhibitory Concentration, EKO-35 araC::macAB (EKO-35 araC::macAB) | Minimum Inhibitory Concentration, EKO-35 araC::acrD (EKO-35 araC::acrD)

N#CC(C#N)=NNc1ccc(-n2ccc(C(F)(F)F)n2)cc1 [compound 8]
1 fold: Fold change of MICs (EKO-35 araC::emrAB) | Fold change of MICs (EKO-35 araC::emrKY) | Fold change of MICs (EKO-35 araC::acrBD408A) | Fold change of MICs [1] | Fold change of MICs (EKO-35 araC::acrEF) | Fold change of MICs (EKO-35 araC::macAB) | Fold change of MICs (EKO-35 araC::acrD)
160 µg/mL: Minimum Inhibitory Concentration, EKO-35 araC::acrD (EKO-35 araC::acrD)
640 µg/mL: Minimum Inhibitory Concentration, EKO-35 araC::acrB (EKO-35 araC::acrB)
320 µg/mL: Minimum Inhibitory Concentration, EKO-35 araC::emrAB (EKO-35 araC::emrAB) | Minimum Inhibitory Concentration, EKO-35 araC::emrKY (EKO-35 araC::emrKY) | Minimum Inhibitory Concentration, EKO-35 araC::acrBD408A (EKO-35 araC::acrBD408A) | Minimum Inhibitory Concentration, EKO-35 araC::mexCD [1] | Minimum Inhibitory Concentration, EKO-35 araC::acrEF (EKO-35 araC::acrEF) | Minimum Inhibitory Concentration, EKO-35 araC::macAB (EKO-35 araC::macAB)

COC(=O)c1sc(N2CCCC2)c(C#N)c1-c1cccs1 [compound 10]
1 fold: Fold change of MICs (EKO-35 araC::emrAB) | Fold change of MICs (EKO-35 araC::emrKY) | Fold change of MICs (EKO-35 araC::acrBD408A) | Fold change of MICs [1] | Fold change of MICs (EKO-35 araC::acrB) | Fold change of MICs (EKO-35 araC::acrEF) | Fold change of MICs (EKO-35 araC::macAB) | Fold change of MICs (EKO-35 araC::acrD)
160 µg/mL: Minimum Inhibitory Concentration, EKO-35 araC::emrAB (EKO-35 araC::emrAB) | Minimum Inhibitory Concentration, EKO-35 araC::emrKY (EKO-35 araC::emrKY) | Minimum Inhibitory Concentration, EKO-35 araC::acrBD408A (EKO-35 araC::acrBD408A) | Minimum Inhibitory Concentration, EKO-35 araC::mexCD [1] | Minimum Inhibitory Concentration, EKO-35 araC::acrB (EKO-35 araC::acrB) | Minimum Inhibitory Concentration, EKO-35 araC::acrEF (EKO-35 araC::acrEF) | Minimum Inhibitory Concentration, EKO-35 araC::macAB (EKO-35 araC::macAB) | Minimum Inhibitory Concentration, EKO-35 araC::acrD (EKO-35 araC::acrD)

O=[N+]([O-])c1ccc2c(c1)C(=NO)c1cc([N+](=O)[O-])ccc1-2 [compound 11]
0.625 µg/mL: Minimum Inhibitory Concentration, EKO-35 araC::acrD (EKO-35 araC::acrD)
320 µg/mL: Minimum Inhibitory Concentration, EKO-35 araC::acrB (EKO-35 araC::acrB) | Minimum Inhibitory Concentration, EKO-35 araC::acrEF (EKO-35 araC::acrEF)
512 fold: Fold change of MICs (EKO-35 araC::emrAB)
40 µg/mL: Minimum Inhibitory Concentration, EKO-35 araC::emrAB (EKO-35 araC::emrAB)
1 fold: Fold change of MICs (EKO-35 araC::emrKY) | Fold change of MICs (EKO-35 araC::acrBD408A) | Fold change of MICs (EKO-35 araC::macAB)
0.078 µg/mL: Minimum Inhibitory Concentration, EKO-35 araC::emrKY (EKO-35 araC::emrKY) | Minimum Inhibitory Concentration, EKO-35 araC::acrBD408A (EKO-35 araC::acrBD408A) | Minimum Inhibitory Concentration, EKO-35 araC::macAB (EKO-35 araC::macAB)
1.25 µg/mL: Minimum Inhibitory Concentration, EKO-35 araC::mexCD [1]
8 fold: Fold change of MICs (EKO-35 araC::acrD)
16 fold: Fold change of MICs [1]
4096 fold: Fold change of MICs (EKO-35 araC::acrEF)
